≈ marks a conversion by molar mass, not a printed value. Where a SMILES comes first, the peptide text is derived from it. Bridges are numbered along the chain shown (N, C = ends). Roman numbers before positions name the chains, in order. [ ]: non-standard residue; d: D form. βAla = NCCC(=O)O
Key:
[1] = tested on: P. aeruginosa AV65; type: cell-based, Pseudomonas aeruginosa; details: AV65, 24 h
Experimental: (§1) M33, […], M35 and M36 MICs were determined against strains of several bacterial species, including Gram-negative pathogens and also Staphylococcus aureus (Table 1). MICs in the micromolar range were observed against several Gram-negatives including Pseudomonas aeruginosa, Acinetobacter baumannii and most Enterobacteriaceae, with the exception of Proteus mirabilis, Serratia marcescens and Burkholderia cepacia. Activity of peptides was retained against MDR strains with various resistance mechanisms (such as extended-spectrum beta-lactamases and carbapenemases), including MDR P. aeruginosa strains from CF patients. Antimicrobial profile of M33, […] and potency were overall similar to those of polymyxin B, although M33, M34, M35 and M36 also appeared to have some activity against S. aureus (Table 1).

[2] = tested on: P. aeruginosa EF-OBG6-1; type: cell-based, Pseudomonas aeruginosa; details: EF-OBG6-1, 24 h
Experimental: as §1

[3] = tested on: P. aeruginosa PAO-1; type: cell-based, Pseudomonas aeruginosa; details: PAO-1, 24 h
Experimental: as §1

[4] = tested on: P. aeruginosa SC-BGr12-02; type: cell-based, Pseudomonas aeruginosa; details: SC-BGr12-02, 24 h
Experimental: as §1

[5] = tested on: P. aeruginosa SC-CNm03-07; type: cell-based, Pseudomonas aeruginosa; details: SC-CNm03-07, 24 h
Experimental: as §1

[6] = tested on: P. aeruginosa SC-DMr05-04; type: cell-based, Pseudomonas aeruginosa; details: SC-DMr05-04, 24 h
Experimental: as §1

[7] = tested on: P. aeruginosa SC-GMm03-05; type: cell-based, Pseudomonas aeruginosa; details: SC-GMm03-05, 24 h
Experimental: as §1

[8] = tested on: P. aeruginosa SC-MDm03-02; type: cell-based, Pseudomonas aeruginosa; details: SC-MDm03-02, 24 h
Experimental: as §1

[9] = tested on: P. aeruginosa SC-MDr03-06; type: cell-based, Pseudomonas aeruginosa; details: SC-MDr03-06, 24 h
Experimental: as §1

[10] = tested on: P. aeruginosa SC-VMr04-05; type: cell-based, Pseudomonas aeruginosa; details: SC-VMr04-05, 24 h
Experimental: as §1

[11] = tested on: P. aeruginosa VR-143/97; type: cell-based, Pseudomonas aeruginosa; details: VR-143/97, 24 h
Experimental: as §1

[12] = tested on: Acinetobacter baumannii RUH 134; type: cell-based; details: RUH 134, 24 h
Experimental: as §1

[13] = tested on: Burkholderia cepacia ORB-99; type: cell-based; details: 24 h
Experimental: as §1

[14] = tested on: Enterobacer aerogenes W03BG0067; type: cell-based; details: 24 h
Experimental: as §1

[15] = tested on: Enterobacter cloacae W03AN0041; type: cell-based; details: W03AN0041, 24 h
Experimental: as §1

[16] = tested on: Escherichia coli ATCC 25922; type: cell-based; details: ATCC 25922, 24 h
Experimental: as §1

[17] = tested on: Klebsiella pneumoniae ATCC 13833; type: cell-based; details: ATCC 13833, 24 h
Experimental: as §1

[18] = tested on: Proteus mirabilis W03VA1017; type: cell-based; details: W03VA1017, 24 h
Experimental: as §1

[19] = tested on: Pseudomonas aeruginosa ATCC 27853; type: cell-based; details: ATCC 27853, 24 h
Experimental: as §1

[20] = tested on: Serratia marcescens W03BG0003; type: cell-based; details: W03BG0003, 24 h
Experimental: as §1

[21] = tested on: Staphylococcus aureus ATCC 29213; type: cell-based; details: ATCC 29213, 24 h
Experimental: as §1

[22] = tested on: S. aureus 3851; type: cell-based, Staphylococcus aureus; details: 3851, 24 h
Experimental: as §1

[23] = tested on: P. aeruginosa ATCC 27853; experiment: Bacterial load of P. aeruginosa in a mouse sepsis model; type: in vivo; details: P. aeruginosa 1 × 10^7 CFU/mouse ip, M33 25 mg/Kg
Experimental: After 40 hours, all sampled body sites were apparently clear of bacteria (Table 2).

[24] = tested on: P. aeruginosa and K. pneumoniae; type: cell-based; details: 24 h
Experimental: as §1
Then it was examined for inhibiting LPS-induced TNF-α, secretion by Raw 264.7 macrophages.

[25] = sacrificed 18 h after infection
[26] = sacrificed 40 h after infection

CC[C@H](C)[C@H](NC(=O)[C@H](CCCCN)NC(=O)[C@@H](N)CCCCN)C(=O)N[C@@H](CCCNC(=N)N)C(=O)N[C@H](C(=O)N[C@@H](CCCNC(=N)N)C(=O)N[C@@H](CC(C)C)C(=O)N[C@@H](CO)C(=O)N[C@@H](C)C(=O)NCCCC[C@H](NC(=O)[C@H](C)NC(=O)[C@H](CO)NC(=O)[C@H](CC(C)C)NC(=O)[C@H](CCCNC(=N)N)NC(=O)[C@@H](NC(=O)[C@H](CCCNC(=N)N)NC(=O)[C@@H](NC(=O)[C@H](CCCCN)NC(=O)[C@@H](N)CCCCN)[C@@H](C)CC)C(C)C)C(=O)NCCCC[C@H](NC(=O)[C@H](CCCCNC(=O)[C@H](C)NC(=O)[C@H](CO)NC(=O)[C@H](CC(C)C)NC(=O)[C@H](CCCNC(=N)N)NC(=O)[C@@H](NC(=O)[C@H](CCCNC(=N)N)NC(=O)[C@@H](NC(=O)[C@H](CCCCN)NC(=O)[C@@H](N)CCCCN)[C@@H](C)CC)C(C)C)NC(=O)[C@H](C)NC(=O)[C@H](CO)NC(=O)[C@H](CC(C)C)NC(=O)[C@H](CCCNC(=N)N)NC(=O)[C@@H](NC(=O)[C@H](CCCNC(=N)N)NC(=O)[C@@H](NC(=O)[C@H](CCCCN)NC(=O)[C@@H](N)CCCCN)[C@@H](C)CC)C(C)C)C(=O)NCCC(=O)O)C(C)C [M33, KKIRVRLSA] (I: H-KKIRVRLSAKK[βAla]-OH / II: H-KKIRVRLSAK / III: H-KKIRVRLSA / IV: H-KKIRVRLSA; amide I:10-IV:C, I:11-II:C, II:10-III:C; N-terminus assumed)
MIC [1]: 1.5 µM (≈ 7.02 µg/mL) | MIC [2]: 0.7 µM (≈ 3.28 µg/mL) | MIC [3]: 1.5 µM (≈ 7.02 µg/mL) | MIC [4]: 1.5 µM (≈ 7.02 µg/mL) | MIC [5]: 0.3 µM (≈ 1.4 µg/mL) | MIC [6]: 1.5 µM (≈ 7.02 µg/mL) | MIC [7]: 1.5 µM (≈ 7.02 µg/mL) | MIC [8]: 3 µM (≈ 14 µg/mL) | MIC [9]: 3 µM (≈ 14 µg/mL) | MIC [10]: 3 µM (≈ 14 µg/mL) | MIC [11]: 1.5 µM (≈ 7.02 µg/mL) | MIC [12]: 1.5 µM (≈ 7.02 µg/mL) | MIC [13]: >24 µM | MIC [14]: 1.5 µM (≈ 7.02 µg/mL) | MIC [15]: 1.5 µM (≈ 7.02 µg/mL) | MIC [16]: 1.5 µM (≈ 7.02 µg/mL) | MIC [17]: 1.5 µM (≈ 7.02 µg/mL) | MIC [18]: >24 µM | MIC [19]: 1.5 µM (≈ 7.02 µg/mL) | MIC [20]: >24 µM | MIC [21]: 6 µM (≈ 28.1 µg/mL) | MIC [22]: 6 µM (≈ 28.1 µg/mL) | Bacterial count (mean ± SD) in Blood [23, 25]: <1 × 10^2 CFU/ml | Bacterial count (mean ± SD) in Liver [23, 25]: 3 × 10^5 ± 6.7 × 10^5 CFU/organ | Bacterial count (mean ± SD) in Spleen [23, 25]: 2.4 × 10^4 ± 5.3 × 10^4 CFU/organ | Bacterial count (mean ± SD) in Blood [23, 26]: <1 × 10^2 CFU/ml | Bacterial count (mean ± SD) in Liver [23, 26]: <1 × 10^2 CFU/organ | Bacterial count (mean ± SD) in Peritoneum [23, 26]: <1 × 10^2 CFU/ml | Bacterial count (mean ± SD) in Spleen [23, 26]: <1 × 10^2 CFU/organ | MIC [24]: 1.5 to 3 µM

— US8440794B2, “Peptide sequences, their branched form and use thereof for antimicrobial applications” (Universita' Degli Studi di Siena, priority 2008, dated 2013)
